Common to all, as to experiment: relative viability (nuclei count vs DMSO), 5 days (fraction); higher = more cells survive
Compound in one assay: CC(C)Oc1cc(Nc2nc(N[C@@H](C)c3ccc(F)cn3)ncc2Cl)n[nH]1 [AZ23]
Summed up:
(§1)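 Vehicle-anchored 1536-well plates of lung cancer cell lines, held overnight at 37 °C, were pinned with five library-drug doses (not always all listed) spaced by √10. No medium change followed over the next 5 days, after which the cells were fixed, permeabilised and Hoechst-stained together and imaged at 4×. Nuclei were counted with MetaXpress, and viability is treated-well nuclei over vehicle-well nuclei, taken as a median across plates. Plates passed with control CV below 25% and at least one doubling.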

Compound in the next assay: CC(C)S(=O)(=O)C1=CC=CC=C1NC2=NC(=NC(=C2Cl)N)NC3=C(C=C(C=C3)N4CCC(CC4)C(=O)N)OC [HG-5-88-01]
The method in brief:
as §1

Compound in the next assay: CCCCCCCCCCCC1=C(O)C(=O)C=C(O)C1=O [Embelin]
Summed up: as §1

Compound in assay [1]: C[C@@H]1CN(CC(=O)Nc2ccc3c(c2)Cc2cccc(-c4cc(=O)cc(N5CCOCC5)o4)c2S3)C[C@H](C)O1
The method in brief:
as §1

Compound in the next assay: Clc1ccc(Nc2nnc(Cc3ccncc3)c3ccccc23)cc1 [Vatalanib]
The method in brief: as §1

The values that follow come from the supplement of paper PMC10307832.

Turning to SW 900, the relative viability in the assay with AZ23 (0.01 µM) is 0.764; with AZ23 (0.03162 µM), 0.635; in the assay with AZ23 (0.3162 µM), 0.883; with HG-5-88-01 (0.04 µM) it was 0.901; in the assay with HG-5-88-01 (0.1265 µM), 0.881; in the assay with HG-5-88-01 (0.4 µM), 0.86. The relative viability was determined as 0.888 in the assay with HG-5-88-01 (1.265 µM); 0.497 with HG-5-88-01 (4 µM); 0.866 with Embelin (0.08 µM); 0.954 with Embelin (0.8 µM); 1.01 with Embelin (2.53 µM); 0.581 with Embelin (8 µM). Also, the relative viability in assay [1] (0.04 µM) is 0.854; in assay [1] (0.1265 µM), 0.899; in assay [1] (0.4 µM) it was 0.954; in assay [1] (4 µM), 0.708; in the assay with Vatalanib (0.04 µM), 0.698; with Vatalanib (0.1265 µM), 0.807. Moreover, the relative viability was 1.07 in the assay with Vatalanib (0.4 µM), 0.737 in the assay with Vatalanib (1.265 µM) and 1.03 in the assay with Vatalanib (4 µM).
On to SW 1573, for which the relative viability with AZ23 (0.01 µM) is 1.15; in the assay with AZ23 (0.03162 µM), 1.16; in the assay with AZ23 (0.3162 µM), 0.881; with HG-5-88-01 (0.04 µM) it was 0.962; in the assay with HG-5-88-01 (0.1265 µM), 0.978; with HG-5-88-01 (0.4 µM), 0.969. The relative viability turned out to be 0.834 with HG-5-88-01 (1.265 µM); 0.864 in the assay with HG-5-88-01 (4 µM); 0.972 with Embelin (0.08 µM); 1.33 with Embelin (0.8 µM); 1.16 with Embelin (2.53 µM); 1.02 in the assay with Embelin (8 µM). Further, the relative viability in assay [1] (0.04 µM) was found to be 0.992; in assay [1] (0.1265 µM), 1.04; in assay [1] (0.4 µM) it was 0.922; in assay [1] (4 µM), 1.06; with Vatalanib (0.04 µM), 0.957; in the assay with Vatalanib (0.1265 µM), 0.995. Moreover, the relative viability with Vatalanib (0.4 µM) came out at 1.19; in the assay with Vatalanib (1.265 µM), 0.868; in the assay with Vatalanib (4 µM), 1.03.
UMC-11: the relative viability in the assay with AZ23 (0.01 µM) stood at 0.954; with AZ23 (0.03162 µM) it was 1.01; with AZ23 (0.3162 µM), 0.968; with HG-5-88-01 (0.04 µM), 0.887; with HG-5-88-01 (0.1265 µM), 1.02; with HG-5-88-01 (0.4 µM) it was 0.843. The relative viability turned out to be 0.943 with HG-5-88-01 (1.265 µM); 0.807 with HG-5-88-01 (4 µM); 0.987 with Embelin (0.08 µM); 1.07 in the assay with Embelin (0.8 µM); 1.02 in the assay with Embelin (2.53 µM); 0.974 with Embelin (8 µM). Further, the relative viability in assay [1] (0.04 µM) came out at 0.969; in assay [1] (0.1265 µM), 0.938; in assay [1] (0.4 µM), 1.01; in assay [1] (4 µM), 0.865; with Vatalanib (0.04 µM) it was 1; in the assay with Vatalanib (0.1265 µM) it was 0.953. Moreover, the relative viability with Vatalanib (0.4 µM) was found to be 0.954; in the assay with Vatalanib (1.265 µM) it was 0.984; in the assay with Vatalanib (4 µM), 1.03.
